Data reported in patent publication US7015242B2, “Methods for treating hyperactive gastrointestinal motility” (Wyeth, priority 2001, dated 2006).

Tests used:
[1] = system: isolated precontracted guinea pig ileum; experiment: Isolated precontracted guinea pig ileum preparations in tissue bath
Method: Following the procedures of the previous example, the effects of retigabine on isolated precontracted guinea pig ileum preparations were studied. Sections of ileum were isolated from male guinea pigs and suspended in a tissue bath. One end of the tissue was anchored to the bottom of the bath, and the other end to a force transducer. Tissues were contracted with either 20 mM KCl or 200 nM carbachol. The KCNQ channel agonist retigabine was added to the tissue baths in increasing concentrations.

[2] = system: isolated carbachol contracted rat bladder strips; experiment: Relaxation of isolated carbachol contracted rat bladder strips; details: for effect on retigabine-induced relaxation of bladder strips: M-current blockers added after retigabine
Method: (§1) Using quantitative rtPCR, the expression of KCNQ1, KCNQ3 and KCNQ5 potassium channels was identified in the rat urinary bladder. […] To further probe M-current activity in the bladder, retigabine (10 μM, M-current agonist) was tested in isolated bladder smooth muscle cells using standard patch-clamp techniques. […] This hyperpolarization was reversed by the addition of linopirdine (50 μM an M-current antagonist) to the tissue bath. […] This relaxation was reversed by the M-current blockers linopirdine and XE-991.

[3] = system: isolated bladder smooth muscle cells; experiment: Patch-clamp of isolated bladder smooth muscle cells (M-current activity); format: cell-based, rat
Method: as §1

[4] = biological target: T1, KCNQ2/3 potassium channels (Homo sapiens, UniProt O43525+O43526); details: oocytes; cited from earlier work
T1 construct: host or cells: oocytes (heterologous expression, as described in the cited article)
T1 sequence (O43526 whole entry): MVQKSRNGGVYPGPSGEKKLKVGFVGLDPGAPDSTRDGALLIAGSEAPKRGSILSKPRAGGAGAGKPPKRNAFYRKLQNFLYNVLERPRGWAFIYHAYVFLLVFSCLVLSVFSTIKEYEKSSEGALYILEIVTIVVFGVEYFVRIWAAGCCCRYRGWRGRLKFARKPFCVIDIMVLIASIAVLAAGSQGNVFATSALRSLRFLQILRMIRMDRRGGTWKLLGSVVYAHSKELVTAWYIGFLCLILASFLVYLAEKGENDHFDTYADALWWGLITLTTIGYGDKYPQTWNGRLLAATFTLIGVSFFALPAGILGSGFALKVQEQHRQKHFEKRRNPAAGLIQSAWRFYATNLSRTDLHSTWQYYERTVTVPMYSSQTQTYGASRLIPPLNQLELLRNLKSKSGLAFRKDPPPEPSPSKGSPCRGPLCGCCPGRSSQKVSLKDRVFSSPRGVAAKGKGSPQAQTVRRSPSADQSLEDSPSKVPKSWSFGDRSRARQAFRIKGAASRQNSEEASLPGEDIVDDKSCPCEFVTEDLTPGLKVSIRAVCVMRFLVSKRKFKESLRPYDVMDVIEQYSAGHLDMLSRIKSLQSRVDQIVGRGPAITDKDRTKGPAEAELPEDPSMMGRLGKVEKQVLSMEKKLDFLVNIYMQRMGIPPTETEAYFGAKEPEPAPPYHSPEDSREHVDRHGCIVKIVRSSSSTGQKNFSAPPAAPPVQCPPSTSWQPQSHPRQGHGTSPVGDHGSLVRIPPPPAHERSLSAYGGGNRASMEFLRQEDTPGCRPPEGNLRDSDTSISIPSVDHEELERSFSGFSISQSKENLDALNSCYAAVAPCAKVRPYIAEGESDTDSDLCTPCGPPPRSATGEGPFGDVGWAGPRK
T1 sequence (O43525 whole entry): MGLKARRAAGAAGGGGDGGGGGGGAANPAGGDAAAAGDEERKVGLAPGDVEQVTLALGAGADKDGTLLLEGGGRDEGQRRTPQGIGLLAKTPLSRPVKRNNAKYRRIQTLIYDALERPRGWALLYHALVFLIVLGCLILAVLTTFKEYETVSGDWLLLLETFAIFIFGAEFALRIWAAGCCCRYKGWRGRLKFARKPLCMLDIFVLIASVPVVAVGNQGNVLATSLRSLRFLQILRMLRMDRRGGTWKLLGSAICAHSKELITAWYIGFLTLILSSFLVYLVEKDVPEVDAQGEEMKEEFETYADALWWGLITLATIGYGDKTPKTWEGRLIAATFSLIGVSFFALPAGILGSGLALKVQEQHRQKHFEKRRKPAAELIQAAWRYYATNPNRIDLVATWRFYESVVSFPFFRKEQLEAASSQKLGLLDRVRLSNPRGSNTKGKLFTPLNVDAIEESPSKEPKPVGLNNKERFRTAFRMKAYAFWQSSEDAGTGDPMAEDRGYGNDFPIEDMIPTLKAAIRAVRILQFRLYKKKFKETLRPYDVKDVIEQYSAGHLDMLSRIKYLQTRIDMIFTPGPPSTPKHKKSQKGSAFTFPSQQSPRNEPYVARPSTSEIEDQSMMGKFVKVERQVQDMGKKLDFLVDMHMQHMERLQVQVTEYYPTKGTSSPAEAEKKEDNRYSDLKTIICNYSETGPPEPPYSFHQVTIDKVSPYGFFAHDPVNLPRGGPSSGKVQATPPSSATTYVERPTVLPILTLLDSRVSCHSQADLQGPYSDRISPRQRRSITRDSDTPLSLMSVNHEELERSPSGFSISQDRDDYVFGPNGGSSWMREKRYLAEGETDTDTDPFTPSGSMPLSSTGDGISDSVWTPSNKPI

SMILES	effect on responses to retigabine in ileum ([1]; both KCl and carbachol contracted tissues)	effect on retigabine-induced relaxation of bladder strips [2]	effect on retigabine-induced hyperpolarization ([3]; linopirdine 50 μM added to the tissue bath)	inhibition of contraction of ileum ([1]; tissues contracted with 20 mM KCl or 200 nM carbachol, increasing concentrations)	channel deactivation [4]	rate of channel activation [4]	voltage dependence of channel activation [4]	IC50 ([2]; Rattus norvegicus, read-out: IC50 of relaxation of carbachol contracted bladder strips)	membrane hyperpolarization ([3]; retigabine 10 μM, n=5)	outward current insensitive to iberiotoxin ([3]; retigabine 10 μM, standard patch-clamp)
O=C1c2ccccc2C(Cc2ccncc2)(Cc2ccncc2)c2ccccc21 [XE-991]	antagonized	reversed	–	–	–	–	–	–	–	–
O=C1N(c2ccccc2)c2ccccc2C1(Cc1ccncc1)Cc1ccncc1 [linopirdine]	–	reversed	reversed	–	–	–	–	–	–	–
CCOC(=O)Nc1ccc(NCc2ccc(F)cc2)cc1N [retigabine, N-[2-amino-4-(4-fluorobenzylamino)-phenyl]carbamic acid ethyl ester]	–	–	–	concentration-dependent inhibition of contraction	slows channel deactivation	increases the rate of channel activation	shifts the voltage dependence of channel activation to more hyperpolarized membrane potentials	3.5 ± 0.9 µM	17.8±3.0 mV	significantly increased
